Tests used:
Type in all cases: in vivo
[1] = system: barnyardgrass (Echinochloa crus-galli); assay: Test A pre-/postemergence: barnyardgrass; conditions: for Barnyardgrass plant response rating: Postemergence; for Plant response rating, Barnyardgrass: Preemergence
Outline: (§1)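 Plants in loam–sand blend were treated with test chemicals in non-phytotoxic solvent with surfactant, either as preemergence directed soil spray or postemergence at 2–10 cm, one- to two-leaf stage. After about ten days in greenhouse, injury was rated visually against untreated controls on a 0–100 scale (100 = complete control).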

[2] = system: crabgrass, large (large crabgrass, Digitaria sanguinalis); assay: Test A pre-/postemergence: crabgrass, large; conditions: for Crabgrass, Large plant response rating: Postemergence; for Plant response rating, Crabgrass, Large: Preemergence
Outline: as §1

[3] = system: foxtail, giant (giant foxtail, Setaria faberii); assay: Test A pre-/postemergence: foxtail, giant; conditions: for Foxtail, Giant plant response rating: Postemergence; for Plant response rating, Foxtail, Giant: Preemergence
Outline: as §1

[4] = system: morningglory (Ipomoea spp.); assay: Test A pre-/postemergence: morningglory; conditions: for Morningglory plant response rating: Postemergence; for Plant response rating, Morningglory: Preemergence
Outline: as §1

[5] = system: pigweed (Amaranthus retroflexus); assay: Test A pre-/postemergence: pigweed; conditions: for Pigweed plant response rating: Postemergence; for Plant response rating, Pigweed: Preemergence
Outline: as §1

[6] = system: velvetleaf (Abutilon theophrasti); assay: Test A pre-/postemergence: velvetleaf; conditions: for Velvetleaf plant response rating: Postemergence; for Plant response rating, Velvetleaf: Preemergence
Outline: as §1

[7] = system: wheat (Triticum aestivum); assay: Test A pre-/postemergence: wheat; conditions: for Wheat plant response rating: Postemergence; for Plant response rating, Wheat: Preemergence
Outline: as §1

corn (Zea mays) = assay: Test A pre-/postemergence: corn; conditions: for Corn plant response rating: Postemergence; for Plant response rating, Corn: Preemergence
Outline: as §1

rice (Oryza sativa) = assay: Test C flooded paddy test: rice; conditions: scale 0 to 100 (0 no effect, 100 complete control)
Outline: (§2)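 Plants at 2-leaf stage in pots flooded 3 cm above soil; compounds applied directly into the paddy water, depth maintained. Visual rating against controls after 13–15 days in greenhouse, scale 0 (no effect) to 100 (complete control).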

[8] = system: sedge, umbrella (small-flower umbrella sedge, Cyperus difformis); assay: Test C flooded paddy test: sedge, umbrella; conditions: scale 0 to 100 (0 no effect, 100 complete control)
Outline: as §2

[9] = system: ducksalad (Heteranthera limosa); assay: Test C flooded paddy test: ducksalad; conditions: scale 0 to 100 (0 no effect, 100 complete control)
Outline: as §2

[10] = system: barnyardgrass (Echinochloa crus-galli); assay: Test C flooded paddy test: barnyardgrass; conditions: scale 0 to 100 (0 no effect, 100 complete control)
Outline: as §2

[11] = 125 g ai/ha, 0 to 100 scale, 0 is no effect, 100 is complete control
[12] = 500 g ai/ha, visual rating on 0 to 100 scale (0 no effect, 100 complete control), approximately ten days
[13] = 125 g ai/ha, 0 to 100 scale (0 no effect, 100 complete control)
[14] = 500 g ai/ha, 0 to 100 scale, 0 is no effect, 100 is complete control
[15] = Flood (flooded paddy test), 62 g ai/ha, visual rating after 13 to 15 days
[16] = Flood (flooded paddy test), 125 g ai/ha, visual rating after 13 to 15 days
[17] = Flood (flooded paddy test), 250 g ai/ha, visual rating after 13 to 15 days
[18] = 125 g ai/ha, 0 to 100 scale where 0 is no effect and 100 is complete control

Cc1nn(-c2ccc(F)cc2)nc1Cc1ccnc(OCC(F)(F)F)c1 [Compound 33]
10: Crabgrass, Large plant response rating [2, 12] | Plant response rating, Crabgrass, Large [2, 14] | Foxtail, Giant plant response rating [3, 12] | Morningglory plant response rating [4, 12] | Pigweed plant response rating [5, 11] | Corn plant response rating (corn (Zea mays); [12])
0: Barnyardgrass plant response rating [1, 11] | Barnyardgrass plant response rating [1, 12] | Plant response rating, Barnyardgrass [1, 13] | Plant response rating, Barnyardgrass [1, 14] | Crabgrass, Large plant response rating [2, 11] | Plant response rating, Crabgrass, Large [2, 13] | Foxtail, Giant plant response rating [3, 11] | Plant response rating, Foxtail, Giant [3, 13] | Plant response rating, Foxtail, Giant [3, 14] | Morningglory plant response rating [4, 11] | Plant response rating, Morningglory [4, 13] | Plant response rating, Morningglory [4, 14] | Plant response rating, Pigweed [5, 13] | Plant response rating, Pigweed [5, 14] | Velvetleaf plant response rating [6, 11] | Velvetleaf plant response rating [6, 12] | Plant response rating, Velvetleaf [6, 13] | Plant response rating, Velvetleaf [6, 14] | Wheat plant response rating [7, 11] | Wheat plant response rating [7, 12] | Plant response rating, Wheat [7, 13] | Plant response rating, Wheat [7, 14] | Corn plant response rating (corn (Zea mays); [11]) | Plant response rating, Corn (corn (Zea mays); [13]) | Plant response rating, Corn (corn (Zea mays); [14]) | Plant response rating, Rice (rice (Oryza sativa); [15]) | Plant response rating, Rice (rice (Oryza sativa); [16]) | Plant response rating, Rice (rice (Oryza sativa); [17]) | Plant response rating, Rice (rice (Oryza sativa); Flood, 31 g ai/ha) | Plant response rating, Sedge, Umbrella [8, 15] | Plant response rating, Sedge, Umbrella [8, 16] | Plant response rating, Sedge, Umbrella [8, 17] | Plant response rating, Sedge, Umbrella ([8]; Flood, 31 g ai/ha) | Plant response rating, Ducksalad [9, 15] | Plant response rating, Ducksalad [9, 16] | Plant response rating, Ducksalad [9, 17] | Plant response rating, Ducksalad ([9]; Flood, 31 g ai/ha) | Plant response rating, Barnyardgrass [10, 15] | Plant response rating, Barnyardgrass [10, 16] | Plant response rating, Barnyardgrass [10, 17] | Plant response rating, Barnyardgrass ([10]; Flood, 31 g ai/ha)
50: Pigweed plant response rating [5, 12]

Cc1nn(-c2cccc(I)c2)nc1C(=O)c1cccc(C(F)(F)F)c1 [Compound 90]
30: Pigweed plant response rating [5, 12]
10: Barnyardgrass plant response rating [1, 12] | Crabgrass, Large plant response rating [2, 12] | Foxtail, Giant plant response rating [3, 12] | Morningglory plant response rating [4, 12] | Corn plant response rating (corn (Zea mays); [12])
0: Barnyardgrass plant response rating [1, 11] | Plant response rating, Barnyardgrass [1, 13] | Plant response rating, Barnyardgrass [1, 14] | Crabgrass, Large plant response rating [2, 11] | Plant response rating, Crabgrass, Large [2, 13] | Plant response rating, Crabgrass, Large [2, 14] | Foxtail, Giant plant response rating [3, 11] | Plant response rating, Foxtail, Giant [3, 18] | Plant response rating, Foxtail, Giant [3, 14] | Morningglory plant response rating [4, 11] | Plant response rating, Morningglory [4, 18] | Plant response rating, Morningglory [4, 14] | Pigweed plant response rating [5, 11] | Plant response rating, Pigweed [5, 18] | Plant response rating, Pigweed [5, 14] | Velvetleaf plant response rating [6, 11] | Velvetleaf plant response rating [6, 12] | Plant response rating, Velvetleaf [6, 18] | Plant response rating, Velvetleaf [6, 14] | Wheat plant response rating [7, 11] | Wheat plant response rating [7, 12] | Plant response rating, Wheat [7, 18] | Plant response rating, Wheat [7, 14] | Corn plant response rating (corn (Zea mays); [11]) | Plant response rating, Corn (corn (Zea mays); [13]) | Plant response rating, Corn (corn (Zea mays); [14]) | Plant response rating, Rice (rice (Oryza sativa); [16]) | Plant response rating, Rice (rice (Oryza sativa); [17]) | Plant response rating, Rice (rice (Oryza sativa); Flood, 31 g ai/ha) | Plant response rating, Rice (rice (Oryza sativa); Flood, 62 g ai/ha) | Plant response rating, Sedge, Umbrella [8, 16] | Plant response rating, Sedge, Umbrella [8, 17] | Plant response rating, Sedge, Umbrella ([8]; Flood, 31 g ai/ha) | Plant response rating, Sedge, Umbrella ([8]; Flood, 62 g ai/ha) | Plant response rating, Ducksalad [9, 16] | Plant response rating, Ducksalad [9, 17] | Plant response rating, Ducksalad ([9]; Flood, 31 g ai/ha) | Plant response rating, Ducksalad ([9]; Flood, 62 g ai/ha) | Plant response rating, Barnyardgrass [10, 16] | Plant response rating, Barnyardgrass [10, 17] | Plant response rating, Barnyardgrass ([10]; Flood, 31 g ai/ha) | Plant response rating, Barnyardgrass ([10]; Flood, 62 g ai/ha)

Cc1nn(-c2cccc(C(F)(F)F)c2)nc1Oc1cccc(C(F)(F)F)c1 [Compound 70]
30: Crabgrass, Large plant response rating [2, 12]
40: Plant response rating, Crabgrass, Large [2, 14] | Pigweed plant response rating [5, 11]
0: Barnyardgrass plant response rating [1, 11] | Plant response rating, Barnyardgrass [1, 13] | Plant response rating, Barnyardgrass [1, 14] | Plant response rating, Crabgrass, Large [2, 13] | Plant response rating, Foxtail, Giant [3, 13] | Plant response rating, Morningglory [4, 13] | Plant response rating, Morningglory [4, 14] | Plant response rating, Pigweed [5, 13] | Plant response rating, Velvetleaf [6, 13] | Plant response rating, Velvetleaf [6, 14] | Wheat plant response rating [7, 11] | Plant response rating, Wheat [7, 13] | Plant response rating, Wheat [7, 14] | Plant response rating, Corn (corn (Zea mays); [13]) | Plant response rating, Corn (corn (Zea mays); [14]) | Plant response rating, Rice (rice (Oryza sativa); [15]) | Plant response rating, Rice (rice (Oryza sativa); [16]) | Plant response rating, Rice (rice (Oryza sativa); [17]) | Plant response rating, Rice (rice (Oryza sativa); Flood, 31 g ai/ha) | Plant response rating, Sedge, Umbrella [8, 15] | Plant response rating, Sedge, Umbrella [8, 16] | Plant response rating, Sedge, Umbrella [8, 17] | Plant response rating, Sedge, Umbrella ([8]; Flood, 31 g ai/ha) | Plant response rating, Ducksalad [9, 15] | Plant response rating, Ducksalad [9, 16] | Plant response rating, Ducksalad [9, 17] | Plant response rating, Ducksalad ([9]; Flood, 31 g ai/ha) | Plant response rating, Barnyardgrass [10, 15] | Plant response rating, Barnyardgrass [10, 16] | Plant response rating, Barnyardgrass [10, 17] | Plant response rating, Barnyardgrass ([10]; Flood, 31 g ai/ha)
20: Foxtail, Giant plant response rating [3, 12] | Morningglory plant response rating [4, 12] | Corn plant response rating (corn (Zea mays); [12])
10: Barnyardgrass plant response rating [1, 12] | Crabgrass, Large plant response rating [2, 11] | Foxtail, Giant plant response rating [3, 11] | Morningglory plant response rating [4, 11] | Plant response rating, Pigweed [5, 14] | Velvetleaf plant response rating [6, 11] | Wheat plant response rating [7, 12] | Corn plant response rating (corn (Zea mays); [11])
100: Pigweed plant response rating [5, 12]
50: Plant response rating, Foxtail, Giant [3, 14] | Velvetleaf plant response rating [6, 12]
